Results on 22 molecules are retold here after publication PMC9352230 (ACS Omega, 2022).

One assay has as its target T1, ENPP1 (Homo sapiens, UniProt P22413).
T1 sequence (P22413 1-925): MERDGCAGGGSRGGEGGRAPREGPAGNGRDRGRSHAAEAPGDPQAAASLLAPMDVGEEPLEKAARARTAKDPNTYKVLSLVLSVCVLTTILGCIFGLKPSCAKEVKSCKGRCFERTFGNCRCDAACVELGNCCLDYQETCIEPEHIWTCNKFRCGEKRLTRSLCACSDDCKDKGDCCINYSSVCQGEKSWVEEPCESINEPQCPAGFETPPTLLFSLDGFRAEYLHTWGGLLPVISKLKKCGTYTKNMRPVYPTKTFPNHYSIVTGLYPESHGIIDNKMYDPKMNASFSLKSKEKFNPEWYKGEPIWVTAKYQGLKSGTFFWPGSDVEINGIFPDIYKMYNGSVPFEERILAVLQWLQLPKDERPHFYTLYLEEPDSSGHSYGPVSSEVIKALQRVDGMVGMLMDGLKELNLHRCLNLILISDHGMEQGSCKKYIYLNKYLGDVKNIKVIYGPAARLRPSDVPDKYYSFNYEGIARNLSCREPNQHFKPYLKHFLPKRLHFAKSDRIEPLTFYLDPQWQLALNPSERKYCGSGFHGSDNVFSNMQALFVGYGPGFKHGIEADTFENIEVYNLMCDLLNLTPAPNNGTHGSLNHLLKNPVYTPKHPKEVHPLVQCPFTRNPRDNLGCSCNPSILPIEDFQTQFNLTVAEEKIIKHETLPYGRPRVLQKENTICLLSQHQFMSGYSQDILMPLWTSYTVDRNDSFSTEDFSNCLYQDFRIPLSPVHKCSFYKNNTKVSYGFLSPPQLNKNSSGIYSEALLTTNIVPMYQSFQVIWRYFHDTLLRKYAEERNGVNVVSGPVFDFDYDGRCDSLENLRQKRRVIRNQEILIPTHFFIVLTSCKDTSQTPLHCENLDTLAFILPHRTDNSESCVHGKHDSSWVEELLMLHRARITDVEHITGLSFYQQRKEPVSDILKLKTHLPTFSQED
The experiment in a line: ENPP1 enzyme inhibition assay. Format: biochemical. Particulars: for inhibition at 100 µM: read-out: ENPP1 % inhibition ± SD.

In the next assay the target is T2, ENPP3 (Homo sapiens, UniProt O14638).
T2 sequence (O14638 1-875): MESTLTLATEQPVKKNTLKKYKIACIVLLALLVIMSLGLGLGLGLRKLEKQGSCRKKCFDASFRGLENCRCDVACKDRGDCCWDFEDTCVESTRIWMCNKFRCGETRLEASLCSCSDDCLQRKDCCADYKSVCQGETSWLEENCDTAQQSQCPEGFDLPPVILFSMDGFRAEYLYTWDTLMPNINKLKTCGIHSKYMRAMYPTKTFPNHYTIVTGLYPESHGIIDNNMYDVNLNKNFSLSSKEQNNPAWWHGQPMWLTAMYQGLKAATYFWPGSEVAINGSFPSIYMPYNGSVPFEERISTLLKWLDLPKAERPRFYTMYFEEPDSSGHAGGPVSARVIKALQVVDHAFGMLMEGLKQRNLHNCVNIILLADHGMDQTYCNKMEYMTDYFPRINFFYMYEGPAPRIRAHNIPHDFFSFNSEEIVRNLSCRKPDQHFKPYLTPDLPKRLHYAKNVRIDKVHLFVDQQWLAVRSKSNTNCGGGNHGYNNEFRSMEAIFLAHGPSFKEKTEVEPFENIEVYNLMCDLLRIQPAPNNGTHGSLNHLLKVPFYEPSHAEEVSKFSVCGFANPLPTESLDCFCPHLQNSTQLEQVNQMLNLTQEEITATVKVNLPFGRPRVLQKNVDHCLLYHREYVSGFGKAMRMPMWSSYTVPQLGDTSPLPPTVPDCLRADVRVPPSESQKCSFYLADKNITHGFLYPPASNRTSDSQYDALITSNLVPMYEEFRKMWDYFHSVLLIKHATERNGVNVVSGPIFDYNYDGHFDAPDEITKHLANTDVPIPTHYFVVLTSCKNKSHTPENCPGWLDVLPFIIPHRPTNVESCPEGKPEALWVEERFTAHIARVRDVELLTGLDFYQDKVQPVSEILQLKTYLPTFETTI
The experiment in a line: ENPP3 enzyme inhibition assay. Particulars: for inhibition at 100 µM: read-out: ENPP3 % inhibition ± SD. The assay is classed as biochemical.

The subject of assay [1] is MCF7 (human breast cancer cell line). The assay can be described thus: MTT cytotoxicity assay, MCF7. Format: cell-based. Particulars: MCF7, 24 h, read-out: MCF7 (% inhibition ±SD).
Assay [2] concerns HEK293 (human embryonic kidney cell line). The assay can be described thus: MTT cytotoxicity assay, HEK293. The assay is classed as cell-based. The settings on record: Homo sapiens, HEK293, 24 h, read-out: HEK293 (% inhibition ±SD). (Tetrazolium assays rely on reduction of a dye to a coloured formazan, in cell work by metabolically active cells.)

As usually defined, the IC50 is the point on the concentration scale where inhibition reaches its midpoint. The inhibition is the percentage by which the read-out fell short of the control. Turning to `CC1(C(=O)Nc2ccc(OS(=O)(=O)c3ccccc3)cc2)c2ccccc2-c2ccccc21` [7f, 4-(9-Methyl-9H-fluorene-9-carboxamido)phenyl Benzenesulfonate], on ENPP1, the half-inhibitory concentration (IC50) is 8450 ± 250 nM. Besides, the figures for the inhibition at 100 µM (on ENPP3; in assay [1]; in assay [2]) were 42.1 ± 2.44%, 5.6 ± 1.11% and 6.2 ± 1.17%, respectively.
`O=C(Nc1ccc(OS(=O)(=O)c2ccc(OC(F)(F)F)cc2)cc1)c1ccccc1` [4t, 4-Benzamidophenyl 4-(trifluoromethoxy)benzenesulfonate]: the inhibition at 100 µM on ENPP1 amounted to 41.4 ± 3.24%; in assay [1], 29.6 ± 1.22%; in assay [2], 8.6 ± 0.14%. On ENPP3, the 50% inhibitory concentration (IC50) worked out at 150 ± 40 nM.
In the case of `Cc1ccc(C(=O)Nc2ccc(OS(=O)(=O)c3ccc(-c4ccccc4)cc3)cc2)cc1` [4h, 4-(4-Methylbenzamido)phenyl [1,1′-Biphenyl]-4-sulfonate], the 50% inhibitory concentration (IC50) on ENPP1 was found to be 1730 ± 30 nM. Besides, the inhibition at 100 µM on ENPP3 was determined as 27.1 ± 4.54%; in assay [1], 9.1 ± 0.71%; in assay [2] it was 4.8 ± 0.24%.
On to `Cc1ccc(C(=O)Nc2ccc(OS(=O)(=O)c3ccc(Cl)cc3)cc2)cc1` [4e, 4-(4-Methylbenzamido)phenyl 4-Chlorobenzenesulfonate], for which the figures for the inhibition at 100 µM (on ENPP1; in assay [1]; in assay [2]) were 44.8 ± 1.52%, 24.2 ± 1.73% and 8.3 ± 0.35%, respectively. On ENPP3, this molecule had a half-maximal inhibitory concentration (IC50) of 820 ± 120 nM.
Take `Cc1ccc(C(=O)Nc2ccc(OS(=O)(=O)c3ccc(F)cc3)cc2)cc1` [4k, 4-(4-Methylbenzamido)phenyl 4-Fluorobenzenesulfonate]: the IC50 worked out at 7610 ± 20 nM on ENPP1 and 370 ± 80 nM against ENPP3. Besides, the inhibition at 100 µM in assay [1] worked out at 11.2 ± 0.52%; in assay [2], 2.1 ± 1.22%.
Turning to `Cc1ccc(C(=O)Nc2ccc(OS(=O)(=O)c3ccc(C)cc3)cc2)cc1` [4a, 4-(4-Methylbenzamido)phenyl 4-Methylbenzenesulfonate], the inhibition at 100 µM on ENPP1 worked out at 26.2 ± 2.11%; at ENPP3, 17 ± 3.24%; in assay [1], 1.1 ± 0.12%; in assay [2], 5.3 ± 0.81%.
As to `CCCc1ccc(S(=O)(=O)Oc2ccc(NC(=O)c3ccc(C)cc3)cc2)cc1` [4f, 4-(4-Methylbenzamido)phenyl 4-Propylbenzenesulfonate], the results for the inhibition at 100 µM (at ENPP3; in assay [1]; in assay [2]) were 8.4 ± 3.11%, 25.7 ± 0.92% and 4.2 ± 0.12%, respectively.
As for `CC1(C(=O)Nc2ccc(OS(=O)(=O)C(F)(F)F)cc2)c2ccccc2-c2ccccc21` [7b, 4-(9-Methyl-9H-fluorene-9-carboxamido)phenyl Trifluoromethanesulfonate], the half-inhibitory concentration (IC50) against ENPP1 amounted to 900 ± 160 nM; at ENPP3 it was 4160 ± 220 nM. Further, the inhibition at 100 µM in assay [1] was 14.1 ± 0.63%; in assay [2], 24.5 ± 1.16%.
In the case of `CCCc1ccc(S(=O)(=O)Oc2ccc(NC(=O)c3ccccc3)cc2)cc1` [4o, 4-Benzamidophenyl 4-Propylbenzenesulfonate], the IC50 against ENPP1 amounted to 1710 ± 40 nM; against ENPP3, 2120 ± 80 nM. The inhibition at 100 µM in assay [1] was 63.2 ± 2.51%; in assay [2], 12.6 ± 0.74%.
Turning to `CC1(C(=O)Nc2ccc(OS(=O)(=O)c3ccccc3F)cc2)c2ccccc2-c2ccccc21` [7a, 4-(9-Methyl-9H-fluorene-9-carboxamido)phenyl 2-Fluorobenzenesulfonate], the concentration for half-maximal inhibition (IC50) at ENPP1 came out at 810 ± 50 nM. For the same molecule, the inhibition at 100 µM on ENPP3 is 28.2 ± 3.22%; in assay [1], 12.7 ± 0.62%; in assay [2] it was 14.6 ± 1.12%.
For `Cc1ccc(C(=O)Nc2ccc(OS(=O)(=O)Cc3ccccc3)cc2)cc1` [4i, 4-(4-Methylbenzamido)phenyl Phenylmethanesulfonate], in that order: 130 ± 10 nM, 46.7 ± 1.54%, 5.7 ± 0.06% and 11.2 ± 0.92%.
As for `O=C(Nc1ccc(OS(=O)(=O)c2ccc(F)cc2)cc1)c1ccccc1` [4s, 4-Benzamidophenyl 4-Fluorobenzenesulfonate], the IC50 worked out at 5760 ± 570 nM at ENPP1 and 2950 ± 250 nM against ENPP3. Further, the inhibition at 100 µM in assay [1] stood at 2.1 ± 0.08%; in assay [2], 20.6 ± 1.14%.
At ENPP1, `O=C(Nc1ccc(OS(=O)(=O)c2cccc3cccnc23)cc1)c1ccccc1` [4q, 4-Benzamidophenyl Quinoline-8-sulfonate] came in with an IC50 of 370 ± 30 nM. For the same molecule, the inhibition at 100 µM at ENPP3 is 19.5 ± 3.53%; in assay [1], 11.2 ± 1.04%; in assay [2], 4.6 ± 0.32%.
As to `CC1(C(=O)Nc2ccc(OS(C)(=O)=O)cc2)c2ccccc2-c2ccccc21` [7d, 4-(9-Methyl-9H-fluorene-9-carboxamido)phenyl Methanesulfonate], the inhibition at 100 µM at ENPP1 was 9.2 ± 4.13%; in assay [1], 0.2 ± 0.06%; in assay [2] it was 5.5 ± 0.36%. This molecule returned an IC50 against ENPP3 of 160 ± 10 nM.
As to `COc1cccc2c1C(=O)c1c(O)c3c(c(O)c1C2=O)C[C@@](O)(C(=O)CO)C[C@@H]3O[C@H]1C[C@H](N)[C@H](O)[C@H](C)O1` [doxorubicin, reference compound], in assay [1], the inhibition at 100 µM was 88.8 ± 2.74%.
Regarding `O=C(Nc1ccc(OS(=O)(=O)c2ccc(I)cc2)cc1)c1ccccc1` [4r, 4-Benzamidophenyl 4-Iodobenzenesulfonate], the results for the IC50 against ENPP1 and at ENPP3 were 2010 ± 340 nM and 530 ± 190 nM, respectively. The figures for the inhibition at 100 µM in assay [1] and in assay [2] were 10.2 ± 0.86% and 11.3 ± 0.71%, respectively.
At ENPP1, `COc1ccc(S(=O)(=O)Oc2ccc(NC(=O)c3ccccc3)cc2)cc1` [4m, 4-Benzamidophenyl 4-Methoxybenzenesulfonate] yielded an IC50 of 820 ± 50 nM. In addition, the inhibition at 100 µM at ENPP3 came to 22.6 ± 2.12%; in assay [1], 4.1 ± 0.01%; in assay [2], 2.3 ± 1.12%.
Take `Cc1ccc(C(=O)Nc2ccc(OS(=O)(=O)c3ccccc3F)cc2)cc1` [4l, 4-(4-Methylbenzamido)phenyl 2-Fluorobenzenesulfonate]: the IC50 was 150 ± 10 nM against ENPP1 and 3480 ± 340 nM at ENPP3. The results for the inhibition at 100 µM in assay [1] and in assay [2] were 0.5 ± 0.03% and 17.4 ± 0.83%, respectively.
Turning to `CC1(C(=O)Nc2ccc(OS(=O)(=O)c3ccc(F)cc3)cc2)c2ccccc2-c2ccccc21` [7c, 4-(9-Methyl-9H-fluorene-9-carboxamido)phenyl 4-Fluorobenzenesulfonate], the IC50 at ENPP1 came to 500 ± 30 nM; on ENPP3 it was 6690 ± 1890 nM. Moreover, the inhibition at 100 µM is 12.4 ± 1.22% in assay [1] and 9.2 ± 0.42% in assay [2].
Molecule `O=C(Nc1ccc(OS(=O)(=O)c2ccc(-c3ccccc3)cc2)cc1)c1ccccc1` [4p, 4-Benzamidophenyl [1,1′-Biphenyl]-4-sulfonate] displayed an IC50 on ENPP1 of 1510 ± 20 nM. Besides, the inhibition at 100 µM is 33.5 ± 1.92% at ENPP3, 8.4 ± 0.75% in assay [1] and 4.3 ± 0.15% in assay [2].
For the molecule `Cc1ccc(C(=O)Nc2ccc(OS(=O)(=O)c3ccccc3)cc2)cc1` [4b, 4-(4-methylbenzamido)phenyl Benzenesulfonate], the figures for the inhibition at 100 µM (on ENPP1; in assay [1]; in assay [2]) were 45.2 ± 1.53%, 7.4 ± 0.04% and 6.4 ± 0.22%, respectively. Besides, half-maximal inhibition against ENPP3 (IC50) required 29800 ± 2130 nM.
As to `Cc1ccc(C(=O)Nc2ccc(OS(=O)(=O)c3ccc(I)cc3)cc2)cc1` [4c, 4-(4-methylbenzamido)phenyl 4-Iodobenzenesulfonate], the half-inhibitory concentration (IC50) against ENPP1 is 14400 ± 540 nM; on ENPP3, 4230 ± 380 nM. In addition, the inhibition at 100 µM in assay [1] turned out to be 33.2 ± 1.32%; in assay [2], 15.2 ± 0.83%.
